Reference: ChEMBL document CHEMBL1151757, “Synthesis, radiosynthesis, and biological evaluation of fluorine-18-labeled 2beta-carbo(fluoroalkoxy)-3beta-(3'-((Z)-2-haloethenyl)phenyl)nortropanes: candidate radioligands for in vivo imaging of the serotonin transporter with positron emission tomography” (J Med Chem, 2008)

Tests used:
Thalamus [1] = experiment: Drug uptake in anesthetized cynomolgus monkey brain thalamus after 45 mins postinjection; format: ADME, organism-based, Macaca fascicularis; parameters: unit not given here; conditions: in vivo, 0.75 h
[2] = Drug uptake in anesthetized cynomolgus monkey brain occipital lobe after 15.5 mins postinjection; format: ADME, organism-based, Macaca fascicularis; conditions: in vivo
[3] = Octanol-water partition coefficient, log P at pH 7.4 by shake-flask method; format: physicochemical
[4] = Ratio of drug uptake in caudate to cerebellum in anesthetized cynomolgus monkey after 12.5 mins postinjection; format: ADME, organism-based, Macaca fascicularis; conditions: in vivo
Caudate [5] = experiment: Drug uptake in anesthetized cynomolgus monkey brain caudate after 22.5 mins postinjection; format: ADME, organism-based, Macaca fascicularis, Caudate nucleus; conditions: in vivo, 0.375 h
Midbrain [6] = experiment: Drug uptake in anesthetized cynomolgus monkey brain midbrain after 3.5 mins postinjection; format: ADME, organism-based, Macaca fascicularis; parameters: unit not given here; conditions: in vivo
Midbrain [7] = experiment: Drug uptake in anesthetized cynomolgus monkey brain midbrain after 85 mins postinjection; format: ADME, organism-based, Macaca fascicularis; parameters: unit not given here; conditions: in vivo
[8] = Ratio of drug uptake in putamen to cerebellum in anesthetized cynomolgus monkey after 235 mins postinjection; format: ADME, organism-based, Macaca fascicularis; conditions: in vivo
[9] = Drug uptake in anesthetized cynomolgus monkey brain frontal lobe after 235 mins postinjection; format: ADME, organism-based, Macaca fascicularis; conditions: in vivo
[10] = Drug uptake in anesthetized cynomolgus monkey brain cerebellum after 155 mins postinjection; format: ADME, organism-based, Macaca fascicularis; conditions: in vivo
Pons [11] = experiment: Drug uptake in anesthetized cynomolgus monkey brain pons after 0.5 mins postinjection; format: ADME, organism-based, Macaca fascicularis; conditions: in vivo
[12] = Drug uptake in anesthetized cynomolgus monkey brain occipital lobe after 45 mins postinjection; format: ADME, organism-based, Macaca fascicularis; conditions: in vivo, 0.75 h
[13] = Drug uptake in anesthetized cynomolgus monkey brain cerebellum after 235 mins postinjection; format: ADME, organism-based, Macaca fascicularis; conditions: in vivo
[14] = Drug uptake in anesthetized cynomolgus monkey brain occipital lobe after 0.5 mins postinjection; format: ADME, organism-based, Macaca fascicularis; conditions: in vivo
[15] = Ratio of drug uptake in midbrain to cerebellum in anesthetized cynomolgus monkey after 95 mins postinjection; format: ADME, organism-based, Macaca fascicularis; conditions: in vivo
[16] = Ratio of drug uptake in frontal lobe to cerebellum in anesthetized cynomolgus monkey after 35 mins postinjection; format: ADME, organism-based, Macaca fascicularis; conditions: in vivo
Thalamus [17] = experiment: Drug uptake in anesthetized cynomolgus monkey brain thalamus after 85 mins postinjection; format: ADME, organism-based, Macaca fascicularis; parameters: unit not given here; conditions: in vivo
Putamen [18] = experiment: Drug uptake in anesthetized cynomolgus monkey brain putamen after 6.5 mins postinjection; format: ADME, organism-based, Macaca fascicularis; parameters: unit not given here; conditions: in vivo
[19] = Drug uptake in anesthetized cynomolgus monkey brain frontal lobe after 1.5 mins postinjection; format: ADME, organism-based, Macaca fascicularis; conditions: in vivo, 0.025 h
Putamen [20] = experiment: Drug uptake in anesthetized cynomolgus monkey brain putamen after 35 mins postinjection; format: ADME, organism-based, Macaca fascicularis; parameters: unit not given here; conditions: in vivo
[21] = Drug uptake in anesthetized cynomolgus monkey brain occipital lobe after 125 mins postinjection; format: ADME, organism-based, Macaca fascicularis; conditions: in vivo
Caudate [22] = experiment: Drug uptake in anesthetized cynomolgus monkey brain caudate after 155 mins postinjection; format: ADME, organism-based, Macaca fascicularis, Caudate nucleus; conditions: in vivo
[23] = Ratio of drug uptake in putamen to cerebellum in anesthetized cynomolgus monkey after 165 mins postinjection; format: ADME, organism-based, Macaca fascicularis; conditions: in vivo, 2.75 h
Thalamus [24] = experiment: Drug uptake in anesthetized cynomolgus monkey brain thalamus after 9.5 mins postinjection; format: ADME, organism-based, Macaca fascicularis; parameters: unit not given here; conditions: in vivo
Pons [25] = experiment: Drug uptake in anesthetized cynomolgus monkey brain pons after 155 mins postinjection; format: ADME, organism-based, Macaca fascicularis; conditions: in vivo
[26] = Ratio of drug uptake in thalamus to cerebellum in anesthetized cynomolgus monkey after 155 mins postinjection; format: ADME, organism-based, Macaca fascicularis; conditions: in vivo
Medulla [27] = experiment: Drug uptake in anesthetized cynomolgus monkey brain medulla after 165 mins postinjection; format: ADME, organism-based, Macaca fascicularis; conditions: in vivo, 2.75 h
Pons [28] = experiment: Drug uptake in anesthetized cynomolgus monkey brain pons after 18.5 mins postinjection; format: ADME, organism-based, Macaca fascicularis; conditions: in vivo
[29] = Drug uptake in anesthetized cynomolgus monkey brain frontal lobe after 105 mins postinjection; format: ADME, organism-based, Macaca fascicularis; conditions: in vivo, 1.75 h
Pons [30] = experiment: Drug uptake in anesthetized cynomolgus monkey brain pons after 115 mins postinjection; format: ADME, organism-based, Macaca fascicularis; conditions: in vivo
[31] = Ratio of drug uptake in occipital lobe to cerebellum in anesthetized cynomolgus monkey after 12.5 mins postinjection; format: ADME, organism-based, Macaca fascicularis; conditions: in vivo
Thalamus [32] = experiment: Drug uptake in anesthetized cynomolgus monkey brain thalamus after 35 mins postinjection; format: ADME, organism-based, Macaca fascicularis; parameters: unit not given here; conditions: in vivo
[33] = Drug uptake in anesthetized cynomolgus monkey brain occipital lobe after 215 mins postinjection; format: ADME, organism-based, Macaca fascicularis; conditions: in vivo
[34] = Ratio of drug uptake in midbrain to cerebellum in anesthetized cynomolgus monkey after 2.5 mins postinjection; format: ADME, organism-based, Macaca fascicularis; conditions: in vivo
[35] = Drug uptake in anesthetized cynomolgus monkey brain occipital lobe after 85 mins postinjection; format: ADME, organism-based, Macaca fascicularis; conditions: in vivo
Pons [36] = experiment: Drug uptake in anesthetized cynomolgus monkey brain pons after 35 mins postinjection; format: ADME, organism-based, Macaca fascicularis; conditions: in vivo
Medulla [37] = experiment: Drug uptake in anesthetized cynomolgus monkey brain medulla after 2.5 mins postinjection; format: ADME, organism-based, Macaca fascicularis; conditions: in vivo
[38] = Drug uptake in anesthetized cynomolgus monkey brain occipital lobe after 235 mins postinjection; format: ADME, organism-based, Macaca fascicularis; conditions: in vivo
Caudate [39] = experiment: Drug uptake in anesthetized cynomolgus monkey brain caudate after 6.5 mins postinjection; format: ADME, organism-based, Macaca fascicularis, Caudate nucleus; conditions: in vivo
[40] = Ratio of drug uptake in medulla to cerebellum in anesthetized cynomolgus monkey after 155 mins postinjection; format: ADME, organism-based, Macaca fascicularis; conditions: in vivo
[41] = Drug uptake in anesthetized cynomolgus monkey brain cerebellum after 3.5 mins postinjection; format: ADME, organism-based, Macaca fascicularis; conditions: in vivo
Pons [42] = experiment: Drug uptake in anesthetized cynomolgus monkey brain pons after 215 mins postinjection; format: ADME, organism-based, Macaca fascicularis; conditions: in vivo
[43] = Drug uptake in anesthetized cynomolgus monkey brain frontal lobe after 0.5 mins postinjection; format: ADME, organism-based, Macaca fascicularis; conditions: in vivo
Putamen [44] = experiment: Drug uptake in anesthetized cynomolgus monkey brain putamen after 225 mins postinjection; format: ADME, organism-based, Macaca fascicularis; conditions: in vivo, 3.75 h
[45] = Ratio of drug uptake in putamen to cerebellum in anesthetized cynomolgus monkey after 35 mins postinjection; format: ADME, organism-based, Macaca fascicularis; conditions: in vivo
Putamen [46] = experiment: Drug uptake in anesthetized cynomolgus monkey brain putamen after 12.5 mins postinjection; format: ADME, organism-based, Macaca fascicularis; parameters: unit not given here; conditions: in vivo
[47] = Drug uptake in anesthetized cynomolgus monkey brain occipital lobe after 145 mins postinjection; format: ADME, organism-based, Macaca fascicularis; conditions: in vivo
[48] = Ratio of drug uptake in thalamus to cerebellum in anesthetized cynomolgus monkey after 135 mins postinjection; format: ADME, organism-based, Macaca fascicularis; conditions: in vivo, 2.25 h
Putamen [49] = experiment: Drug uptake in anesthetized cynomolgus monkey brain putamen after 125 mins postinjection; format: ADME, organism-based, Macaca fascicularis; conditions: in vivo
Pons [50] = experiment: Drug uptake in anesthetized cynomolgus monkey brain pons after 235 mins postinjection; format: ADME, organism-based, Macaca fascicularis; conditions: in vivo
[51] = Ratio of drug uptake in occipital lobe to cerebellum in anesthetized cynomolgus monkey after 95 mins postinjection; format: ADME, organism-based, Macaca fascicularis; conditions: in vivo
Thalamus [52] = experiment: Drug uptake in anesthetized cynomolgus monkey brain thalamus after 4.5 mins postinjection; format: ADME, organism-based, Macaca fascicularis; parameters: unit not given here; conditions: in vivo, 0.075 h
Thalamus [53] = experiment: Drug uptake in anesthetized cynomolgus monkey brain thalamus after 55 mins postinjection; format: ADME, organism-based, Macaca fascicularis; parameters: unit not given here; conditions: in vivo
[54] = Drug uptake in anesthetized cynomolgus monkey brain cerebellum after 65 mins postinjection; format: ADME, organism-based, Macaca fascicularis; conditions: in vivo
[55] = Drug uptake in anesthetized cynomolgus monkey brain frontal lobe after 215 mins postinjection; format: ADME, organism-based, Macaca fascicularis; conditions: in vivo
[56] = Drug uptake in anesthetized cynomolgus monkey brain occipital lobe after 6.5 mins postinjection; format: ADME, organism-based, Macaca fascicularis; parameters: unit not given here; conditions: in vivo
[57] = Ratio of drug uptake in pons to cerebellum in anesthetized cynomolgus monkey after 0.5 mins postinjection; format: ADME, organism-based, Macaca fascicularis; conditions: in vivo
Medulla [58] = experiment: Drug uptake in anesthetized cynomolgus monkey brain medulla after 3.5 mins postinjection; format: ADME, organism-based, Macaca fascicularis; conditions: in vivo
[59] = Drug uptake in anesthetized cynomolgus monkey brain cerebellum after 6.5 mins postinjection; format: ADME, organism-based, Macaca fascicularis; conditions: in vivo
Medulla [60] = experiment: Drug uptake in anesthetized cynomolgus monkey brain medulla after 105 mins postinjection; format: ADME, organism-based, Macaca fascicularis; conditions: in vivo, 1.75 h

O=C(OCCC[18F])C1C2CCC(CC1c1cccc(/C=C\Br)c1)N2 (stereo not given)
Drug uptake (Thalamus [1]): 5.49 | Drug uptake [2]: 4.29 | logD [3]: 1.87 | Ratio [4]: 0.7 | Drug uptake (Caudate [5]): 4.63 | Drug uptake (Midbrain [6]): 2.59 | Drug uptake (Midbrain [7]): 5.86 | Ratio [8]: 1.7 | Drug uptake [9]: 2.01 | Drug uptake [10]: 2.62 | Drug uptake (Pons [11]): 0.01 | Drug uptake [12]: 4.61 | Drug uptake [13]: 1.87 | Drug uptake [14]: 0.01 | Ratio [15]: 1.5 | Ratio [16]: 0.7 | Drug uptake (Thalamus [17]): 5.27 | Drug uptake (Putamen [18]): 4.42 | Drug uptake [19]: 0.25 | Drug uptake (Putamen [20]): 6.11 | Drug uptake [21]: 3.64 | Drug uptake (Caudate [22]): 4.18 | Ratio [23]: 1.7 | Drug uptake (Thalamus [24]): 4.02 | Drug uptake (Pons [25]): 4.03 | Ratio [26]: 1.6 | Drug uptake (Medulla [27]): 4.42 | Drug uptake (Pons [28]): 4.55 | Drug uptake [29]: 3.19 | Drug uptake (Pons [30]): 4.2 | Ratio [31]: 0.7 | Drug uptake (Thalamus [32]): 5.26 | Drug uptake [33]: 2.7 | Ratio [34]: 1 | Drug uptake [35]: 4.19 | Drug uptake (Pons [36]): 5.08 | Drug uptake (Medulla [37]): 1.62 | Drug uptake [38]: 2.53 | Drug uptake (Caudate [39]): 3.14 | Ratio [40]: 1.7 | Drug uptake [41]: 2.81 | Drug uptake (Pons [42]): 3.17 | Drug uptake [43]: 0.01 | Drug uptake (Putamen [44]): 3.51 | Ratio [45]: 1.1 | Drug uptake (Putamen [46]): 5.25 | Drug uptake [47]: 3.5 | Ratio [48]: 1.6 | Drug uptake (Putamen [49]): 4.82 | Drug uptake (Pons [50]): 3.26 | Ratio [51]: 1.1 | Drug uptake (Thalamus [52]): 2.48 | Drug uptake (Thalamus [53]): 5.46 | Drug uptake [54]: 4.29 | Drug uptake [55]: 2.03 | Drug uptake [56]: 3.31 | Ratio [57]: 1.6 | Drug uptake (Medulla [58]): 2.91 | Drug uptake [59]: 5.03 | Drug uptake (Medulla [60]): 5.19
